Where “and” joins values, the source holds several entries; their conditions need not be identical. Equal entries are not always repeated. Records with an inconclusive call do not appear.
System: BDF1 mice, colon carcinoma 38 sc, T/C %
Assay: NCI In Vivo Anticancer Drug Screen. Data for tumor model Colon Carcinoma 38 (subcutaneous) in B6D2F1 (BDF1) mice
Conditions: endpoint: median tumor weight (est.), higher = larger tumour
Outline: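 Ratio of survival or tumor size, compound-treated animals relative to vehicle controls, in tumor-bearing mice.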

CCN(C)N=Nc1ccc(C(N)=O)cc1
T/C (dose: 12.5 mg/kg/injection, schedule: Q07DX002 (ip), vehicle: Klucel (hydroxypropylcellulose) (HPC)): 82 % of control and 84 % of control
T/C (dose: 25.0 mg/kg/injection, schedule: Q07DX002 (ip), vehicle: Klucel (hydroxypropylcellulose) (HPC)): 82 % of control and 87 % of control
T/C (dose: 50.0 mg/kg/injection, schedule: Q07DX002 (ip), vehicle: Klucel (hydroxypropylcellulose) (HPC)): 56 % of control and 63 % of control and 76 % of control
T/C (dose: 100.0 mg/kg/injection, schedule: Q07DX002 (ip), vehicle: Klucel (hydroxypropylcellulose) (HPC)): 61 % of control and 77 % of control and 78 % of control

O=C1c2ccccc2C(=O)c2c1cn1c2Cc2ccccc2C1
T/C (dose: 5.0 mg/kg/injection, schedule: Q01DX005 (iv), vehicle: other): 36 % of control
T/C (dose: 10.0 mg/kg/injection, schedule: Q01DX005 (iv), vehicle: other): 36 % of control
T/C (dose: 18.0 mg/kg/injection, schedule: Q07DX002 (ip), vehicle: Klucel (hydroxypropylcellulose) (HPC)): 219 % of control
T/C (dose: 18.75 mg/kg/injection, schedule: Q07DX002 (ip), vehicle: Klucel (hydroxypropylcellulose) (HPC)): 63 % of control
T/C (dose: 20.0 mg/kg/injection, schedule: Q01DX005 (iv), vehicle: other): 36 % of control
T/C (dose: 37.0 mg/kg/injection, schedule: Q07DX002 (ip), vehicle: Klucel (hydroxypropylcellulose) (HPC)): 89 % of control
T/C (dose: 37.5 mg/kg/injection, schedule: Q07DX002 (ip), vehicle: Klucel (hydroxypropylcellulose) (HPC)): 63 % of control
T/C (dose: 40.0 mg/kg/injection, schedule: Q01DX005 (iv), vehicle: other): 23 % of control
T/C (dose: 75.0 mg/kg/injection, schedule: Q07DX002 (ip), vehicle: Klucel (hydroxypropylcellulose) (HPC)): 38 % of control and 41 % of control and 59 % of control
T/C (dose: 75.0 mg/kg/injection, schedule: Q07DX002 (iv), vehicle: other): 95 % of control
T/C (dose: 100.0 mg/kg/injection, schedule: Q07DX002 (ip), vehicle: other): 74 % of control
T/C (dose: 100.0 mg/kg/injection, schedule: Q07DX002 (ip), vehicle: saline with Tween-80): 63 % of control
T/C (dose: 100.0 mg/kg/injection, schedule: Q07DX002 (iv), vehicle: other): 120 % of control
T/C (dose: 150.0 mg/kg/injection, schedule: Q07DX002 (ip), vehicle: other): 41 % of control
T/C (dose: 200.0 mg/kg/injection, schedule: Q07DX002 (ip), vehicle: other): 41 % of control
T/C (dose: 200.0 mg/kg/injection, schedule: Q07DX002 (ip), vehicle: saline with Tween-80): 61 % of control
T/C (dose: 300.0 mg/kg/injection, schedule: Q07DX002 (ip), vehicle: Klucel (hydroxypropylcellulose) (HPC)): 8 % of control and 13 % of control

CC[C@@]1(O)C(=O)OCc2c1cc1n(c2=O)Cc2cc3ccccc3nc2-1
T/C (dose: 1.5 mg/kg/injection, schedule: Q07DX002 (ip), vehicle: saline with Tween-80): 100 % of control
T/C (dose: 3.0 mg/kg/injection, schedule: Q07DX002 (ip), vehicle: saline with Tween-80): 92 % of control
T/C (dose: 6.0 mg/kg/injection, schedule: Q07DX002 (ip), vehicle: saline with Tween-80): 75 % of control
T/C (dose: 12.0 mg/kg/injection, schedule: Q07DX002 (ip), vehicle: saline with Tween-80): 90 % of control
T/C (dose: 24.0 mg/kg/injection, schedule: Q07DX002 (ip), vehicle: saline with Tween-80): 95 % of control

CCOC(=O)C(CC(C)C)NC(=O)C(N)Cc1ccc(N(CCCl)CCCl)cc1 (configuration not stated)
T/C (dose: 5.0 mg/kg/injection, schedule: Q07DX002 (ip), vehicle: saline): 43 % of control
T/C (dose: 5.0 mg/kg/injection, schedule: Q07DX002 (ip), vehicle: water): 86 % of control
T/C (dose: 10.0 mg/kg/injection, schedule: Q07DX002 (ip), vehicle: saline): 65 % of control
T/C (dose: 10.0 mg/kg/injection, schedule: Q07DX002 (ip), vehicle: water): 71 % of control
T/C (dose: 20.0 mg/kg/injection, schedule: Q07DX002 (ip), vehicle: saline): 31 % of control
T/C (dose: 20.0 mg/kg/injection, schedule: Q07DX002 (ip), vehicle: water): 36 % of control

From PubChem BioAssay AID212 (DTP/NCI, 2004)
